ChEMBL document CHEMBL1201862, “PubChem BioAssay data set” (2004)
Blank lines part the entries; values can stand above or below the compound they belong to. The source made the active and inactive calls. Unless noted, the calls are words filed in the database; no cut-off is given here.

Experiments:
[1] = target: T1, Kappa-type opioid receptor (Homo sapiens, UniProt P41145); assay: SAR analysis of small molecule agonists of the kappa opioid receptor via a luminescent beta-arrestin assay - Set 2. [Related pubchem assays (depositor defined):AID1777, AID1785, AID1786, AID1966, AID2133, AID2136, AID2284, AID449737]; assay type: functional
T1 sequence (P41145 whole entry): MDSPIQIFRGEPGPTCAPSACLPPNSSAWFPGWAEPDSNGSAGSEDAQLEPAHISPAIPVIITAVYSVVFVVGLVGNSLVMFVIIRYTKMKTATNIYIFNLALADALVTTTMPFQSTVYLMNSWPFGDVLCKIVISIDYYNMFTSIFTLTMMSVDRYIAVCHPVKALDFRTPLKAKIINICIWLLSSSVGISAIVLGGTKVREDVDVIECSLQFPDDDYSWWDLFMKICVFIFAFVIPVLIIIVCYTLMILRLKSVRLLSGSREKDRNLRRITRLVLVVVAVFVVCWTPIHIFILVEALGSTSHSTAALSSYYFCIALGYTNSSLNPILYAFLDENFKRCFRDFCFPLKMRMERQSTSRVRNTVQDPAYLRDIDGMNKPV

[2] = target: T1, Kappa-type opioid receptor; assay: kappa opioid receptor blockade potency – cell-based, luminescence, set 2, SAR follow-up (AID 2495); assay type: functional
[3] = target: T1, Kappa-type opioid receptor; assay: SAR analysis of Agonists of the Kappa Opioid Receptor (KOR) using an Image-Based Assay - Set 2. [Related pubchem assays (depositor defined):AID1777, AID1786, AID1966, AID2133, AID2136, AID2284, AID2285, AID2359]; assay type: functional
Mu-type opioid receptor [4] = target: T2, Mu-type opioid receptor (Homo sapiens, UniProt P35372); assay: SAR Analysis of Agonists of the MOR Receptor using an Image-Based Assay - Set 2. [Related pubchem assays (depositor defined):AID1777, AID1785, AID1786, AID1966, AID2133, AID2136, AID2284, AID2285, AID2352]; assay type: functional
T2 sequence (P35372 whole entry): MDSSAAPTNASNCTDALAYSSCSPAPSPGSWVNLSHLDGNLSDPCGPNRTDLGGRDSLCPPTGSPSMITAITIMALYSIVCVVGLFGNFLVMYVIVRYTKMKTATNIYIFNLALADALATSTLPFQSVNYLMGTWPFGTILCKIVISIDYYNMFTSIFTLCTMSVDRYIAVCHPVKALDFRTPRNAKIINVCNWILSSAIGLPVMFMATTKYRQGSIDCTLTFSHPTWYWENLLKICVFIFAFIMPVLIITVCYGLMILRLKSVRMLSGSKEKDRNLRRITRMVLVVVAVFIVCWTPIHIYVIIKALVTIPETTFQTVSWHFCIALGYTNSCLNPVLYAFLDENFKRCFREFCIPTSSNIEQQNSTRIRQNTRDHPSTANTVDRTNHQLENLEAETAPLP

[5] = target: T3, Delta-type opioid receptor (Homo sapiens, UniProt P41143); assay: SAR Analysis of Antagonists of the DOR Receptor using an Image-Based Assay - Set 2. [Related pubchem assays (depositor defined):AID1777, AID1785, AID1786, AID1966, AID2133, AID2136, AID2284, AID2285, AID2357]; assay type: functional
T3 sequence (P41143 whole entry): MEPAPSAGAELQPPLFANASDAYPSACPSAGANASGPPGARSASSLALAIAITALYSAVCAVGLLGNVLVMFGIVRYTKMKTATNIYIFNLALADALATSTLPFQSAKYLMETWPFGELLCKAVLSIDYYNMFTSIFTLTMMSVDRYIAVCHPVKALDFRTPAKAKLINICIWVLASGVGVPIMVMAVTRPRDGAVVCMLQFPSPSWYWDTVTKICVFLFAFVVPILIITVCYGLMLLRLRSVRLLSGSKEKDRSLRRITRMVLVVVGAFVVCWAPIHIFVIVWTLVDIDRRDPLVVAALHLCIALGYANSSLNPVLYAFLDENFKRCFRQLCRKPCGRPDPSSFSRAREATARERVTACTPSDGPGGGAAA

Mu-type opioid receptor [6] = target: T2, Mu-type opioid receptor; assay: SAR Analysis of Antagonists of the MOR Receptor using an Image-Based Assay - Set 2. [Related pubchem assays (depositor defined):AID1777, AID1785, AID1786, AID1966, AID2133, AID2136, AID2284, AID2285, AID2420]; assay type: functional
[7] = target: T1, Kappa-type opioid receptor; assay: SAR analysis of Antagonists of the Kappa Opioid Receptor (KOR) using an Image-Based Assay - Set 2. [Related pubchem assays (depositor defined):AID1777, AID1785, AID1786, AID1966, AID2133, AID2136, AID2284, AID2285, AID2348]; assay type: functional
[8] = target: T3, Delta-type opioid receptor; assay: SAR Analysis of Agonists of the DOR Receptor using an Image-Based Assay - Set 2. [Related pubchem assays (depositor defined):AID1777, AID1785, AID1786, AID1966, AID2133, AID2136, AID2284, AID2285, AID2370]; assay type: functional
[9] = target: Peroxisome proliferator-activated receptor gamma/Nuclear receptor coactivator 2 (Homo sapiens, UniProt P37231); assay: (§1) TR-FRET dose response biochemical High Throughput Screening assay for agonists of the steroid receptor coactivator 2 (SRC-2) recruitment by the peroxisome proliferator-activated receptor gamma (PPAR gamma): non-selective agonists. [Related pubchem assays: 1297, 1032 ]; assay type: functional
[10] = target: Peroxisome proliferator-activated receptor gamma/Nuclear receptor coactivator 1 (Homo sapiens, UniProt P37231); assay: as §1, with “1 (SRC-1)” for “2 (SRC-2)”, “assays (depositor defined):AID1300, AID1808, AID504735, AID631]” for “assays: 1297, 1032 ]”; assay type: protein assay
[11] = target: Peroxisome proliferator-activated receptor gamma/Nuclear receptor coactivator 3 (Homo sapiens, UniProt P37231); assay: as §1, with “3 (SRC-3)” for “2 (SRC-2)”, “1301 (Confirmation screen.), 1048 (Primary screen.)]” for “1297, 1032 ]”; assay type: functional
Chain of Peroxisome proliferator-activated receptor gamma/Nuclear receptor coactivator 3 (P37231 whole entry): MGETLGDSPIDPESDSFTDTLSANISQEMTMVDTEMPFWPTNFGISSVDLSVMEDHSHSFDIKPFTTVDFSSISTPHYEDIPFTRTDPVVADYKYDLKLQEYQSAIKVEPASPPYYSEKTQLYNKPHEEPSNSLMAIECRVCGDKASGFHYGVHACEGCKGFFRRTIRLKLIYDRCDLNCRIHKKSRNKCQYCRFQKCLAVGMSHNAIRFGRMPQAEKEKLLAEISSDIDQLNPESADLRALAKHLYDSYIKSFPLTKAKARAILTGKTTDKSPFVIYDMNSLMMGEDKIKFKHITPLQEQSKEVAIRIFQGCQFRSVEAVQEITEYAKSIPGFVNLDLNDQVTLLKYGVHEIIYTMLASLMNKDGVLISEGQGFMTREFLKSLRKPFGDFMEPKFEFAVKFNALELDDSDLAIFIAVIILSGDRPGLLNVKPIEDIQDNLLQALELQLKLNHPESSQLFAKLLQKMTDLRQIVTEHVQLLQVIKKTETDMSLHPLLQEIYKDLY
Chain of Peroxisome proliferator-activated receptor gamma/Nuclear receptor coactivator 3 (Q9Y6Q9 whole entry, further chain): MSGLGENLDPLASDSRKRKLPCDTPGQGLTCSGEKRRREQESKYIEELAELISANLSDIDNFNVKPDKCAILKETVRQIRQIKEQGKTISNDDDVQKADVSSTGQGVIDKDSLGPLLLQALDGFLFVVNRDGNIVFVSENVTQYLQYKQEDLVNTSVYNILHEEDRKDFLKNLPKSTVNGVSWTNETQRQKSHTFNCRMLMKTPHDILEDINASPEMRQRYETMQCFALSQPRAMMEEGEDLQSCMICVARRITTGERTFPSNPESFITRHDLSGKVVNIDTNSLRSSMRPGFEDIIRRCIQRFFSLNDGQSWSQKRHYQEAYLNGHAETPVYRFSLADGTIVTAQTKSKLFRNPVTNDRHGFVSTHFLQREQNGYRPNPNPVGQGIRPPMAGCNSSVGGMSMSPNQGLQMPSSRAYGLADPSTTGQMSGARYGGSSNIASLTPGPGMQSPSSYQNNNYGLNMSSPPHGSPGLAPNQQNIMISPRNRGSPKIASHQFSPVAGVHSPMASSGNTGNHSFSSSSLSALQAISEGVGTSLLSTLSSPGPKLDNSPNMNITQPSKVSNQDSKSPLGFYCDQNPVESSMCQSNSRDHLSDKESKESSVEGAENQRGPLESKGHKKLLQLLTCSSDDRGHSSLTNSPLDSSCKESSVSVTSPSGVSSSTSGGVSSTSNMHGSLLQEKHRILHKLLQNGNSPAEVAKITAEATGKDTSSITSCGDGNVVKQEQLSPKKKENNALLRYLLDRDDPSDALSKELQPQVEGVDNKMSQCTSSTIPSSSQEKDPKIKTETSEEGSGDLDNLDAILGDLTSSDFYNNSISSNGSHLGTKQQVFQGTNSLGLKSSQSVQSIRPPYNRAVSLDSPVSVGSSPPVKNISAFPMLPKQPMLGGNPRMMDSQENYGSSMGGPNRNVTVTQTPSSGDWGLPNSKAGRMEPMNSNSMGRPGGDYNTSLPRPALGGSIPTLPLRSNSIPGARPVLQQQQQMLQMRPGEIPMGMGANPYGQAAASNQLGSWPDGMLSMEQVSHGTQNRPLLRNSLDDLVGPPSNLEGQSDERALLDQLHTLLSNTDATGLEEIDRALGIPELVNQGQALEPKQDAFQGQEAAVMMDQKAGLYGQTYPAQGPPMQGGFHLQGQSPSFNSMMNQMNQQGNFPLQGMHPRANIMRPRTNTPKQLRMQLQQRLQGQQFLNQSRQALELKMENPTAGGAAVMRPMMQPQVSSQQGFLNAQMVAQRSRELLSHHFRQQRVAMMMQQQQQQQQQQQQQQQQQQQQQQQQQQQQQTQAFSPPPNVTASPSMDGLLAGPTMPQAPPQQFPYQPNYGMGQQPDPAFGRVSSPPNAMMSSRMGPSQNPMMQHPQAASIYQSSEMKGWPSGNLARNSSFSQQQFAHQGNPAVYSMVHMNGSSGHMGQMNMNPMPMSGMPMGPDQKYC

Cannabinoid receptor 1 [12] = target: T4, Cannabinoid receptor 1 (Homo sapiens, UniProt P21554); assay: SAR analysis of antagonists of the Cannabinoid Receptor 1 using an Image-Based Assay - Set 4. [Related pubchem assays (depositor defined):AID2013, AID2026]; assay type: functional
T4 sequence (P21554 whole entry): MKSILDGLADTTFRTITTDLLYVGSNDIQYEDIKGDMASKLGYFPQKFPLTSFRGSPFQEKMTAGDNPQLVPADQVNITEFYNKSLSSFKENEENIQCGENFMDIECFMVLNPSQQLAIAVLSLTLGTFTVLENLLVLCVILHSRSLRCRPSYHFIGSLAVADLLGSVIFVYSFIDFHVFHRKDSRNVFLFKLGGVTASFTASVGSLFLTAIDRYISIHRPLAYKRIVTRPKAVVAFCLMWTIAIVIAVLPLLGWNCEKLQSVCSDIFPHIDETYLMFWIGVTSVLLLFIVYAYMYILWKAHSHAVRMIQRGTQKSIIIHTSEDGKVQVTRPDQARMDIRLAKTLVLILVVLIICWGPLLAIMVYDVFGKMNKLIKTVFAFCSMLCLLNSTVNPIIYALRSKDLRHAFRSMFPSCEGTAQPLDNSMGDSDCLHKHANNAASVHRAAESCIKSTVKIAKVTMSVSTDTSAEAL

Cannabinoid receptor 2 [13] = target: T5, Cannabinoid receptor 2 (Homo sapiens, UniProt P34972); assay: SAR analysis of agonists of the Cannabinoid Receptor 2 using an Image-Based Assay - Set 3. [Related pubchem assays (depositor defined):AID2013, AID2026]; assay type: functional
T5 sequence (P34972 whole entry): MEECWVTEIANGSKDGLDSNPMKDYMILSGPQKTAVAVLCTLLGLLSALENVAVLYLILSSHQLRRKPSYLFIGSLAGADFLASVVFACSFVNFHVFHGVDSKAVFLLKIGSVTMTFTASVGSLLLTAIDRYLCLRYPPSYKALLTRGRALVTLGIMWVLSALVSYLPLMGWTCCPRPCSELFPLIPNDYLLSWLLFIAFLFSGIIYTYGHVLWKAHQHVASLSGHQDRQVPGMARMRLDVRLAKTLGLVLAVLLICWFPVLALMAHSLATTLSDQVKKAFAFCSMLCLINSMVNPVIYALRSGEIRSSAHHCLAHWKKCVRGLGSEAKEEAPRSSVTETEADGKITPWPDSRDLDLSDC

[14] = target: G-protein coupled receptor 55 (Homo sapiens, UniProt Q9Y2T6); assay: SAR Analysis of Selective Antagonists of GPR55 using an Image-Based Assay - Set 4. [Related pubchem assays (depositor defined):AID2013, AID2026]; assay type: functional;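 further: antagonism of response to 5 µM lysophosphatidylinositol agonist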
Chain of G-protein coupled receptor 55 (Q9Y2T6 whole entry): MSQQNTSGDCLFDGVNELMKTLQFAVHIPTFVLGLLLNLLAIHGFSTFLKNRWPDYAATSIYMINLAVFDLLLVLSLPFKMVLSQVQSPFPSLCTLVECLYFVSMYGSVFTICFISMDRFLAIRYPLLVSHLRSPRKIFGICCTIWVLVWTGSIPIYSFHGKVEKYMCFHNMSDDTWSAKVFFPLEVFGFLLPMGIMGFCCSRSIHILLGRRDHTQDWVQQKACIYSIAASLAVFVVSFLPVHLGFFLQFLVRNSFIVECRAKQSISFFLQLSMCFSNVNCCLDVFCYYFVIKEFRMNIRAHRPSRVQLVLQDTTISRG

[15] = target: T6, G-protein coupled receptor 35 (Homo sapiens, UniProt Q9HC97); assay: SAR analysis of Agonists of the GPR35 Receptor using an Image-Based Assay - Set 4. [Related pubchem assays (depositor defined):AID2013, AID2026]; assay type: functional
T6 sequence (Q9HC97 whole entry): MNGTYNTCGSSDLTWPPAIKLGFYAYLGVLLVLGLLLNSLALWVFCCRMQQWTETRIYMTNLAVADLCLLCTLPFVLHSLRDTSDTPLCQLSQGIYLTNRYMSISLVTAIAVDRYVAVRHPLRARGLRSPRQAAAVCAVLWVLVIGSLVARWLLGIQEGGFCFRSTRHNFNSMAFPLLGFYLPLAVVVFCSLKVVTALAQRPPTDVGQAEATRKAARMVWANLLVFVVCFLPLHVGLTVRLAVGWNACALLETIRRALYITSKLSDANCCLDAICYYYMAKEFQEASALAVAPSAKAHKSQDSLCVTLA

Cannabinoid receptor 1 [16] = target: T4, Cannabinoid receptor 1; assay: SAR analysis of agonists of the Cannabinoid Receptor 1 using an Image-Based Assay - Set 4. [Related pubchem assays (depositor defined):AID2013, AID2026]; assay type: functional
[17] = target: T6, G-protein coupled receptor 35; assay: SAR analysis of Antagonists of the GPR35 Receptor using an Image-Based Assay - Set 6. [Related pubchem assays (depositor defined):AID2013, AID2026]; assay type: functional
Cannabinoid receptor 2 [18] = target: T5, Cannabinoid receptor 2; assay: SAR analysis of antagonists of the Cannabinoid Receptor 2 using an Image-Based Assay - Set 3. [Related pubchem assays (depositor defined):AID2013, AID2026]; assay type: functional
[19] = target: Sphingosine 1-phosphate receptor 1 (Homo sapiens, UniProt P21453); assay: Fluorescence-based counterscreen assay for S1P4 agonists: Cell-based dose response high throughput screening assay to identify agonists of the Sphingosine 1-Phosphate Receptor 1 (S1P1). [Related pubchem assays (depositor defined):AID1509, AID1523, AID1801, AID463107, AID463118, AID463119, AID463122, AID463123, AID463129, AID463225, AID504400, AID504460]; assay type: functional
Chain of Sphingosine 1-phosphate receptor 1 (P21453 whole entry): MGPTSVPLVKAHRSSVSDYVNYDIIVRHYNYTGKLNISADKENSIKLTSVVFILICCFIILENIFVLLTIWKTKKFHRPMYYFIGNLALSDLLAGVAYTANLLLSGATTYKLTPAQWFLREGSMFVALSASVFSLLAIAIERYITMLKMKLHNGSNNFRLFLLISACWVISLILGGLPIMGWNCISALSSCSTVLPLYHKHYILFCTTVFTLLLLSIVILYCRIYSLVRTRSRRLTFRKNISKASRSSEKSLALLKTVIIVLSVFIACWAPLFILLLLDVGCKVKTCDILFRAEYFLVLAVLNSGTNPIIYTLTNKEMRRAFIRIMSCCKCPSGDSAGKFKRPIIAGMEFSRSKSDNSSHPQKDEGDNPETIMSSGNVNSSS

[20] = target: T7, Sphingosine 1-phosphate receptor 4 (Homo sapiens, UniProt O95977); assay: Fluorescence dose response cell-based high throughput screening assay for agonists of the Sphingosine 1-Phosphate Receptor 4 (S1P4). [Related pubchem assays: 1509 (Primary screen.), 1523 (Confirmation screen in triplicates.)]; assay type: functional
T7 sequence (O95977 whole entry): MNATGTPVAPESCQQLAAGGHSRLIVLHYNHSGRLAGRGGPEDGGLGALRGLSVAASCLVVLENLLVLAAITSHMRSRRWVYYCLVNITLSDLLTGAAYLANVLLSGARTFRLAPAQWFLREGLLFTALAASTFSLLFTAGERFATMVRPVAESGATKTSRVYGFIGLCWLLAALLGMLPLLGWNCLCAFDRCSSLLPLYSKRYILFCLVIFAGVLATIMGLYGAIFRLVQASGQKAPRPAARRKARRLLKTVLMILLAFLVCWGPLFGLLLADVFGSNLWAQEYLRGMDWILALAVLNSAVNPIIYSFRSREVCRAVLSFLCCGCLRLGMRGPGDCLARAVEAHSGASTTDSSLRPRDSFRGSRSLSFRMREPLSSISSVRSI

- EC50 [1]: > 20 µM (inactive)
- IC50 [2]: > 20 µM (inactive)
- EC50 [3]: > 32 µM (inactive)
- EC50 (Mu-type opioid receptor [4]): > 32 µM (inactive)
- IC50 [5]: > 32 µM (inactive)
- IC50 (Mu-type opioid receptor [6]): > 32 µM (inactive)
- IC50 [7]: > 32 µM (inactive)
- EC50 [8]: > 32 µM (inactive)
Compound: CCc1ccc(S(=O)(=O)NCc2ccc(C(=O)NCCc3ccccc3)cc2)cc1

- EC50 [9]: > 79.4 µM (not active)
- EC50 [10]: > 79.4 µM (inactive)
- EC50 [11]: > 79.4 µM (not active)
Compound: CC(C)C(OC(=O)c1cc2occc2n1C)C(=O)NCc1ccc2c(c1)OCO2 (stereo not given)

- IC50 (Cannabinoid receptor 1 [12]): 15.9 µM (inactive)
- EC50 (Cannabinoid receptor 2 [13]): 1.31 µM (active)
- IC50 [14]: 4.1 µM (active)
- EC50 [15]: > 32 µM (inactive)
- EC50 (Cannabinoid receptor 1 [16]): > 32 µM (inactive)
- IC50 [17]: > 32 µM (inactive)
- IC50 (Cannabinoid receptor 2 [18]): > 32 µM (inactive)
Compound: N=c1c(C(=O)NCc2ccccc2)cc2c(=O)n3ccccc3nc2n1C1CCCC1

- EC50 [19]: 8.75 µM (active)
- EC50 [20]: 4.06 µM (active)
Compound: Cc1cccc(-n2c(=O)c(C#N)cc3c(=O)n4ccccc4nc32)c1
